“Also recorded” adds a separate entry of the source.
Key:
isolated rat aorta [1] = assay: In vitro induction of tolerance: vasorelaxation of aortic rings pre-exposed to the NO-releasing compound; type: cell-based; conditions: vasorelaxation in rings pre-treated with 0.44 mM of the compound versus control rings; in words
Procedure: Aortic rings were prepared as described hereinabove, and were exposed to 0.44 mM GTN (vehicle was water:ethanol:propyleneglycol at proportional ratio of 1:1:1) for 1 hour before CCRC construction, to thereby induce tolerance to nitroglycerine. At the end of the tolerance induction period, rings were thrice washed with the path buffer (Krebs-bicrbonate) every 15 minutes for the following hour and then CCRC for vasorelaxation on GTN-induced tolerance rings were constructed for GTN (pretreated versus untreated rings, FIG. 15), in order to verify the ability to induce and measure GTN tolerance induction in vitro
Attempted induction of tolerance to the NO-donating compounds of the present invention was performed under the same conditions as for GTN. Thus, in an exemplary experiment, rings were exposed to 0.44 mM solution of Pet-3 in the attempt to induce tolerance for Pet-3. CCRC were then measured for the vasorelaxing effect of Pet-3 on a group of rings which were pre-exposed to Pet-3 as to induce tolerance to Pet-3, and for an untreated control group. The above protocol was repeated with Pet-2, Pet-7, Pet-8, Pet-12, Pet-24, Pet-43, Pet-149 and Pet-152.

isolated rat aorta [2] = assay: Cross-tolerance studies on aortic rings (GTN / Pet-12 pre-treatment); type: cell-based; conditions: in words
Procedure: Cross-tolerance studies were conducted using the same technique described above for measuring vasorelaxation of aortic rings from rats. Two groups of aortic rings samples were pre-treated with GTN, then one group was measured for vasorelaxation by GTN and the second group for vasorelaxation by Pet-12, an exemplary NO-donor according to the present invention. For the opposite cross-tolerance studies, two groups of aortic rings samples were pre-treated with Pet-12, then one group was measured for vasorelaxation by GTN and the second group for vasorelaxation by Pet-12.

c-GMP [3] = assay: Induction of in vivo nitrate tolerance (cGMP in aorta isolated after 16 hour infusion); design: species or system rat; conditions: in words; for tolerance induction in vivo: cGMP accumulation in isolated aorta of rats pre-treated in vivo with the compound
Procedure: For c-GMP levels and tolerance development, the rat's thoracic aorta was isolated after exposure to the tested compound in vivo, and measured as described above in the in vitro assays.
Male Sprague Dawley rats (220 to 250 grams) were housed under constant temperature and humidity conditions. Light was maintained at a 12/12 light dark cycle. Except for 12 hours before the experiment, when food fasting was initiated, all rats had free access to standard rat pellet diet and tap water. The animals were anesthetized by intraperitoneal injection of ketamine and xylazine combination (50 and 10 milligram per kilogram, respectively). […] The catheters were filled with normal saline solution containing 1000 IU/ml of heparin and plugged with a metal pin. Catheters were externalized to the back of the neck region and secured by a polyester felt disk.
After implantation, the rats were individually housed until they regained their preoperative weight and appeared healthy (3 to 4 days post-operation). At this time point (day 0), an osmotic mini-pump (Alza Corp., Palo Alto, Calif.) delivering constant volume (10 μl/hour) of vehicle or drug was connected to one of the intravenous catheters.
For inducing tolerance to the tested NO-donor according to the present invention, the animals received 200 μg/hour of the tested compound for 16 hours (short-term-induced tolerance). A similar number of animals were processed by the same surgical procedure and received the vehicle alone (10 μl/hour of a solution consisting of 30% ethanol and 30% propylene glycol in sterile distilled water for injection).
At the end of the infusion periods used for the development of tolerance (16 hour), the rats were anesthetized as described above, the two catheters were externalized and the delivering catheters were disconnected from the mini-pump. The abdomen was opened by midline incision and the thoracic aorta were isolated, washed and cleaned from the surrounding tissues. Strips of the treated aortas were pooled in chambers containing Krebs-Hanseliet buffer (10 ml), and exposed to 1 μM of the tested NO-donor (final concentration) for 120 seconds. The tissues were quickly collected and frozen in liquid nitrogen for cGMP measurement, described hereinabove.

isolated rat aorta [4] = assay: In vitro vasorelaxation of epinephrine-contracted rat aortic rings (cumulative concentration-response curves); type: cell-based; conditions: isolated rat aorta pre-treated in vitro with 1 μM epinephrine; in words
Source text: Male Sprague Dawley rats were anaesthetized using intraperitoneal injection of ketamine and xylazine (50 and 10 milligram per kilogram, respectively) and the thoracic aorta, the large upper portion of the descending aorta, starting at the caudal border of the chest bone, was removed thereafter, while carefully removing the paraadventetial tissue surrounding the vessel. Aortae were cut into rings of 4-5 millimeters and mounted onto the tissue path. The path buffer (Krebs-bicrbonate) was constantly gassed with carbogen and maintained at 37° C. The rings were preloaded under 2 g tension and equilibrated for 90 minutes, while refreshing the buffer every 15 minutes. After stabilization, the rings were contracted with epinephrine (1 μM). Cumulative Concentration-Response Curves (CCRC) were measured for the vasorelaxing effect induced by adding various concentrations, ranging from 10^−10 M to 10^−5 M of Pet-2, Pet-3, Pet-7, Pet-8, Pet-12, Pet-24, Pet-43, Pet-59, Pet-147, Pet-152 and Pet-154, and glyceryltrinitrate (GTN), according to the procedure described in Feelich et al., Molecular Pharmacology, 56:243-253 (1999). The vehicle, which was used for this experiment was water:ethanol:propyleneglycol at proportional ratio of 1:1:1.
The vasorelaxing effect of the thiazole-derived NO-donors according to the present invention was measured on slices of thoracic aorta of rats contracted with epinephrine, as described hereinabove.

c-GMP [5] = assay: Cyclic-GMP measurement in aortic rat tissue (radioimmunoassay); type: cell-based; conditions: isolated rat aorta, FIGS. 25, 27 and 33; in words
Procedure: GTN (10^−6 M) was added to the chamber and, 1 minute after exposure to the drug, rings (usually 3-5) were taken, wrapped with aluminum foil and immediately frozen in liquid nitrogen for storage. Control sample group was treated with the vehicle solution only. At the time of analysis, rings were thawed, blotted over a dry gauzed and weighted. A known weight of tissue was homogenized in 2 ml ice-cold modified Hank's balanced salt solution containing (in gram/liter) NaCl 8; KCl 0.4; glucose 1; KH2PO4 0.06; Na2HPO4 0.047; Phenol red 0.017 and further containing 25 mM EDTA (disodium salt). The homogenate was centrifuged at 4000 g (force units) for 10 minutes at 2-4° C. and the supernatant was thereafter transferred into fresh pre-cooled test tube containing 1 ml of acetonitrile. The tubes were vortex mixed for a few seconds and subsequently centrifuged at 4000 g for 5 minutes at 2-4° C., to remove the precipitated protein. Each supernatant was transferred into a clean test tube and evaporated to dryness under a stream of nitrogen at 55° C. The dry residue was reconstituted with 10 volumes of Tris-EDTA buffer pH 7.5 (0.05 M Tris containing 4 mM EDTA). Aliquots of 100 μl of the reconstituted solution in duplicate were used for c-GMP measurements using Amersham RIA kit, as is described in Haj-Yehia & Benet [Pharmacology, 1995, 273, 1, pp. 94-100]. Standard curves were plotted with six concentrations (0, 0.5, 1, 2, 4 and 8 pmoles of c-GMP per tube).
The NO-tolerance effect of GTN and NO-donor compounds according to the present invention was measured by following the production of c-GMP in slices of thoracic aorta of rats. Thus, the production of c-GMP was measured as described in the methods section above for the reference NO-donor compound GTN, and for the NO-donors of the present invention Pet-2, Pet-3, Pet-7, Pet-8, Pet-10, Pet-12, Pet-24, Pet-59, Pet-147, Pet-149, Pet-152, Pet-154 and Pet-155.

Row | SMILES | tolerance induction in vitro (isolated rat aorta [1]) | vasorelaxation effect as compared with glyceryltrinitrate (isolated rat aorta [4]) | levels of cGMP as compared with GTN (c-GMP [5]) | other results
1 | Cc1nc(-c2cccnc2)sc1CCO[N+](=O)[O-] [Pet-12, 3-[4-Methyl-5-(2-nitrooxy-ethyl)-thiazole-2-yl]-pyridine] | absence of tolerance induction | – | – | vasorelaxation in GTN-tolerant rings (cross-tolerance) (isolated rat aorta [2]; aortic rings pre-treated with epinephrine and then with GTN): absence of tolerance induction effect; also recorded: has no effect on the vasorelaxation capacity; tolerance after pre-treatment with Pet-12 (to itself and to GTN) (isolated rat aorta [2]; aortic rings pre-treated with epinephrine and then with Pet-12): absence of tolerance induction effect; also recorded: does not evoke tolerance to itself not to GTN; tolerance induction in vivo (c-GMP [3]): absence of tolerance induction; also recorded: absence of tolerance effect; also recorded: lack of tolerance induction
2 | CCc1nc(C)c(CCO[N+](=O)[O-])s1 [Pet-2, 2-Ethyl-4-methyl-5-(2-nitrooxy-ethyl)-thiazole] | – | superior | – | level of cGMP following a repeated treatment in vivo (c-GMP [3]; aorta of rats infused 200 μg/hour for 16 hours, then exposed to 1 μM compound for 120 seconds): remained substantially unchanged; tolerance induction in vivo (c-GMP [3]): absence of tolerance induction; also recorded: absence of tolerance effect
3 | Cc1nc(Nc2cccc3ccccc23)sc1CCO[N+](=O)[O-] [Pet-149, [4-Methyl-5-(2-nitrooxy-ethyl)-thiazol-2-yl]-naphthalen-1-yl-amine] | absence of tolerance induction | superior | increased levels of cGMP | –
4 | Cc1nc(-c2ccc(C(F)(F)F)cc2)sc1CCO[N+](=O)[O-] [Pet-59, 4-Methyl-5-(2-nitrooxy-ethyl)-2-(4-trifluoromethyl-phenyl)-thiazole] | – | superior | increased levels of cGMP | –
5 | Cc1nc(N)sc1CCO[N+](=O)[O-] [Pet-10, 4-methyl-5-(2-nitrooxy-ethyl)-thiazole-2-ylamine] | – | – | increased levels of cGMP | –
6 | Cc1nc(NC(=O)[C@@H](C)c2ccc(CC(C)C)cc2)sc1CCO[N+](=O)[O-] (stereo in doubt) [Pet-152, 2-(4-Isobutyl-phenyl)-N-[4-methyl-5-(2-nitrooxy-ethyl)-thiazol-2-yl]-propionamide] | – | superior | increased levels of cGMP | –
7 | Cc1nc(Nc2nc(C)c(CCO[N+](=O)[O-])s2)sc1CCO[N+](=O)[O-] [Pet-43, Bis-[4-methyl-5-(2-nitrooxy-ethyl)-thiazol-2-yl]-amine] | absence of tolerance induction | superior | – | –
8 | C=CCNc1nc(C)c(CCO[N+](=O)[O-])s1 [Pet-155, allyl-[4-methyl-5-(2-nitrooxy-ethyl)-thiazol-2-yl]-amine] | – | superior | increased levels of cGMP | –
9 | Cc1nc(C)c(CCO[N+](=O)[O-])s1 [Pet-3, 2,4-Dimethyl-5-(2-nitrooxy-ethyl)-thiazole] | absence of tolerance induction | superior | increased levels of cGMP | –
10 | CNc1cncc(-c2nc(C)c(CCO[N+](=O)[O-])s2)n1 [Pet-24, Methyl-{6-[4-methyl-5-(2-nitrooxy-ethyl)-thiazol-2-yl]-pyrazin-2-yl}-amine] | absence of tolerance induction | – | increased levels of cGMP | –
11 | Cc1nc(NC(=O)c2cccnc2)sc1CCO[N+](=O)[O-] [Pet-154, N-[4-methyl-5-(2-nitrooxy-ethyl)-thiazol-2-yl]-nicotinamide] | – | – | increased levels of cGMP | –
12 | Cc1nc(N(C)C)sc1CCO[N+](=O)[O-] [Pet-7, Dimethyl-[4-methyl-5-(2-nitrooxy-ethyl)-thiazol-2-yl]-amine] | absence of tolerance induction | – | increased levels of cGMP | –
13 | CCNc1nc(C)c(CCO[N+](=O)[O-])s1 [Pet-147, Ethyl-[4-methyl-5-(2-nitrooxy-ethyl)-thiazol-2-yl]-amine] | – | – | increased levels of cGMP | –
14 | Cc1nc(-c2ccccc2)sc1CCO[N+](=O)[O-] [Pet-8, 4-Methyl-5-(2-nitrooxy-ethyl)-2-phenyl-thiazole] | – | superior | increased levels of cGMP | –
